{
  "source": "patent US7795253B2",
  "about": "“Condensed imidazole derivatives as aromatase inhibitors” (Novartis AG, priority 2006, dated 2010)",
  "molecular_target": "T1, recombinant human Cyp19 enzyme (Homo sapiens, UniProt P11511)",
  "T1 construct": "purchased Becton Dickinson Biosciences, San Jose, Calif., USA",
  "T1 sequence (P11511 1-503)": "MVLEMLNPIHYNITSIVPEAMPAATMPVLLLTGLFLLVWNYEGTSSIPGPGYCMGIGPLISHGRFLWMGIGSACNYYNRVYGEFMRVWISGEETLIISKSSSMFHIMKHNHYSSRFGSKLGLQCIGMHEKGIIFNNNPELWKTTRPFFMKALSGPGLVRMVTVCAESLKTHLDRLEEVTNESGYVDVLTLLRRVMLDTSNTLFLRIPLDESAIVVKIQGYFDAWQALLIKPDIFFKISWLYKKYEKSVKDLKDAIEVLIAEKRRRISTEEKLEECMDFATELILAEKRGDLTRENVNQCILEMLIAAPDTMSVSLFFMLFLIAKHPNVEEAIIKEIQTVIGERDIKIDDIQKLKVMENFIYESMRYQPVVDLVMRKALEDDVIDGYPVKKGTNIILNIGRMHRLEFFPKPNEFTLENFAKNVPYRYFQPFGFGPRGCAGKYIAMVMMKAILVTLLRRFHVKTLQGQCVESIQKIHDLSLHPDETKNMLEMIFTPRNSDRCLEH",
  "experiment": "Cyp19/methoxy-4-trifluoromethyl-coumarin (MFC) high throughput inhibition kit",
  "format": "biochemical",
  "conditions": "Cyp19 supersomes, MFC substrate",
  "protocol": "A compound of formula (I) is to be understood as a compound having a specific configuration around the designated asymmetric carbon atom labelled “*”. If a synthesis method is used which leads to racemic compounds, the racemate resolution is carried out in accordance with conventional methods, such as via a chiral HPLC column. […] The aforementioned activity can, readily and as described below, be determined by using a commercial Cyp19 enzyme inhibition kit, preferably the Cyp19/methoxy-4-trifluoromethyl-coumarin (MFC) high throughput inhibition kit (Becton Dickinson Biosciences, San Jose, Calif., USA) as described hereafter. In the above-mentioned inhibition kit, compounds of the formula (I) show an inhibiting activity which is at least 10 times higher, but preferably 20 times higher, or more preferably 40 times higher, than the substances of the formula (I) with the opposite configuration around the asymmetric carbon atom labelled “*”. A higher inhibiting activity corresponds to a lower IC50 value.\nThese effects are demonstrable in in vitro assay tests using cell-free and cellular systems. […] The Cyp19/Methoxy-4-trifluoromethyl-coumarin (MFC) high throughput inhibition kit (Becton Dickinson Biosciences, San Jose, Calif., USA), for example, is designed to screen for potential inhibitors of Cyp19 catalytic activity in a 96-well format. […]",
  "data": [
    {"smiles": "N#Cc1ccc(C2OCCn3cncc32)cc1", "note": "(stereo not shown) [antipode of 1]", "values": [
      {"measurement": "IC50", "result": 2770, "unit": "nM"}
    ]}
  ]
}
